Data from US8877791B2, “Inhibitors of pyruvate kinase and methods of treating disease” (Beth Israel Deaconess Medical Center, Inc., priority 2006, dated 2014).

What was measured:
PKM2 = PKM2 (Homo sapiens (Human), UniProt P14618); test: Recombinant PKM2 enzyme activity in the presence of FBP (LDH-coupled NADH consumption); format: biochemical; conditions: for IC50: recombinant pyruvate kinase, enzyme activity at various concentrations of inhibitor, read-out: IC50 in vitro (PKM2); for PKM2 inhibition of enzyme activity relative to the absence of compound: screening concentration estimated at 50 μM
Experimental: (§1) Recombinant PKM1 and PKM2 were expressed in E. coli and purified using an Ni-NTA column according to standard protocols. PKM2 ([…]) was mixed with the following components: 0.6 mM ADP, 0.5 mM phosphoenolpyruvate, 200 μM NADH, 1-4 units of lactate dehydrogenase, 50 μM FBP, 1 mM DTT, 0.02% Brij 35, 5% glycerol, and the test molecule with a final DMSO concentration of 5%. A control reaction lacked the test molecule. The test molecules used in this example were selected from a library containing over 100,000 compounds.
Primary screening was performed using PKM2 in the presence of FBP. […] Activity was measured by monitoring the concentration of NADH. Pyruvate, produced by the enzymatic activity of pyruvate kinase, is converted into lactate by lactate dehydrogenase, which requires the consumption of NADH (NADH→NAD^+). Thus, the activity of PKM2 was indirectly measured by monitoring the consumption of NADH through fluorescence assays. Additionally, the activity of the PKM2 enzyme was directly monitored by measuring the production of ATP, as ATP is produced when phosphoenolpyruvate is converted to pyruvate by PKM2.
(§2) For in vitro studies, recombinant pyruvate kinase was incubated with the compound indicated (Table 2) and the activity of the enzyme assessed, as described in Example 4. To determine the IC50, enzyme activity was determined at various concentrations of inhibitor. The percentages shown in Table 2 reflect the inhibition of enzyme activity relative to the absence of compound when the enzyme is incubated with 50 μM of the compound indicated. For in vivo studies, human lung cancer cell lines were incubated with increasing concentrations of the compound indicated and the concentration required to kill >90% of the cells is reported.

PKM1 = PKM1 (Homo sapiens (Human), UniProt P14618); test: Recombinant PKM1 enzyme activity (same screening method); format: biochemical; conditions: screening concentration estimated at 50 μM
Experimental: as §1
This same screening method was then used to retest candidate molecules for the inhibition of PKM1 to determine which candidate compounds are active against PKM2, but not PKM1.
as §2

[1] = tested on: H1299 and A549 human lung cancer cells; test: Killing of human lung cancer cell lines by increasing concentrations of compound; format: cell-based; conditions: concentration required to kill >90% of the cells, read-out: IC50 in vivo
Experimental: as §2
Human lung cancer cells were exposed to increasing concentrations of candidate compounds A2 and D1. The toxicity of the compounds was measured by determining the percentage of surviving cells. Cells were mock-treated with DMSO as a control. […] depicts the toxicity of compounds A2 (FIG. 8a) and D1 (FIG. 8b) in H1299 cells compared to mock treatment with DMSO.

FL5.12 cells = test: Toxicity in FL5.12 cells with and without growth factor (IL-3); format: cell-based, mouse; conditions: twenty hours of treatment, presence and absence of IL-3
Experimental: Mouse pre-lymphocyte cells (FL5.12 cells) were treated with candidate compounds A2 (FIG. 9a) and D1 (FIG. 9b) for twenty hours in the presence and absence of growth factor (IL-3).

Sequence of PKM2 (P14618 whole entry, species assumed): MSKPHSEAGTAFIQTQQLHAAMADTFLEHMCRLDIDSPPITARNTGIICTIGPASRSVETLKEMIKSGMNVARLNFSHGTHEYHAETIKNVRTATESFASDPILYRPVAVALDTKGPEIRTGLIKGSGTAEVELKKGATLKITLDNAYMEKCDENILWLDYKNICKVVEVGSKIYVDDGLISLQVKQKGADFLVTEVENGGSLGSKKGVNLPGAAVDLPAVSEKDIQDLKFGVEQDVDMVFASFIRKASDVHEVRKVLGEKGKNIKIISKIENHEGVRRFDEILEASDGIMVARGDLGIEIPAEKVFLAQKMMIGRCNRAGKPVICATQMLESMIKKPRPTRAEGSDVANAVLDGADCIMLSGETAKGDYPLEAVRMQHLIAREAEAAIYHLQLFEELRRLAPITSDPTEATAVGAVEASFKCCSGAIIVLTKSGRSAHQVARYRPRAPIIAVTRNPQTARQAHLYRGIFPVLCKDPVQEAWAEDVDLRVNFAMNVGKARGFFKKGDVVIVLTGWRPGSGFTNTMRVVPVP
Sequence of PKM1 (P14618 other isoform, or with tags, fused parts or gaps, species assumed): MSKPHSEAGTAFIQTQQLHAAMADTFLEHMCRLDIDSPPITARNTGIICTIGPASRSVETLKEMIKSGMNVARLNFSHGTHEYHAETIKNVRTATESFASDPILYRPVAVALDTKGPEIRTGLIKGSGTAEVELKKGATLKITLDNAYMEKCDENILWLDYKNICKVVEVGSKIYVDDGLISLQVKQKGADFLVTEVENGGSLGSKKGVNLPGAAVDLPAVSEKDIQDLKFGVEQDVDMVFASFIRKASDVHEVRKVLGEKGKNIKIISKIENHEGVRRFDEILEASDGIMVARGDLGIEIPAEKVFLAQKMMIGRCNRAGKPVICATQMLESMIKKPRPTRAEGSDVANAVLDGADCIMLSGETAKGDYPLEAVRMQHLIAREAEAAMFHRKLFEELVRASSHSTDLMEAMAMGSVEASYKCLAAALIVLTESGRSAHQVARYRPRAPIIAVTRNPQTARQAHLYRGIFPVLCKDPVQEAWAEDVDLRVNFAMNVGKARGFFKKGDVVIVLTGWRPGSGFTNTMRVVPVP

Structure (SMILES)	IC50 (PKM2) [µM]	PKM2 inhibition of enzyme activity relative to the absence of compound (PKM2) [%]	PKM1 inhibition of enzyme activity relative to the absence of compound (PKM1) [%]	Concentration killing >90% of cells [1] [µM]	Toxicity in FL5.12 cells, effect of growth factor withdrawal (FL5.12 cells)
CCCCCN1/C(=C/C=C/c2n(CCCCC)c3cc(Cl)c(Cl)cc3[n+]2CCCC)N(CCCC)c2cc(Cl)c(Cl)cc21 [Compound B1]	~10	85	0	–	–
O=C1C2C3C=CC(C3)C2C(=O)N1c1nc[nH]n1 (stereo not shown) [Compound H1]	90	–	–	> 500	–
O=C(O)CN1C(=O)/C(=C/c2ccc(OC(=O)c3ccccc3I)cc2)SC1=S [Compound D1]	20	70	15	~250	Growth factor withdrawal increases the toxicity
CC(=O)CSc1ccc(-n2c(C)ccc2C)cc1 [Compound A1]	~90	50	15	> 100	–
C=C(NC(C)C)c1cc2c(=O)oc3ccc(C)cc3c2s1 [Compound G1]	~70	–	–	> 500	–
